Our source for the GI50 and TGI values is PubChem BioAssay (NCI).

Test systems include NCI-H23 lung; OVCAR-3 ovarian; UACC-62 melanoma; HCC-2998 colon; HOP-62 NSCLC; MDA-MB-435; BT-549 breast; HT29 colon; IGROV1 ovarian; HCT-15 colon.
Holding throughout (assay): growth of human tumour cells (NCI), 48 h

Where “and” joins values, the source holds several entries; their conditions need not be identical. Equal values may be shown once.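 How tested: cells in 96-well plates exposed to compound for 48 hours at five concentrations. GI50 marks 50% less growth. TGI: total growth inhibition.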

As to `O=C1[C@H](Cc2ccc(O)cc2)N2C(=O)CCN(C(=O)NCc3ccccc3)[C@H]2CN1Cc1cccc2ccccc12`, the GI50 in the assay on NCI-H23 lung is 4.05 µM; with OVCAR-3 ovarian it was 1.71 µM; with UACC-62 melanoma, 4.45 µM; with HCC-2998 colon, 3.51 µM; in the assay on HOP-62 NSCLC, 3.22 µM; in the assay on MDA-MB-435 it was 3.96 µM. In addition, the GI50 is 3.01 µM in the assay on BT-549 breast, 2.85 µM in the assay with HT29 colon, 1.42 µM with IGROV1 ovarian and 15.5 µM in the assay on HCT-15 colon. For the same molecule, the TGI worked out at 34.5 µM with NCI-H23 lung; 8.91 µM in the assay on OVCAR-3 ovarian; 25 µM with UACC-62 melanoma; 23.2 µM in the assay with HCC-2998 colon; 19.1 µM in the assay on HOP-62 NSCLC; 21.4 µM with MDA-MB-435. Further, the TGI with BT-549 breast is 22.6 µM; in the assay with HT29 colon, 19.3 µM; with IGROV1 ovarian it was 10.5 µM; with HCT-15 colon, > 89.8 µM.
As to `OCc1ccc(N2CCc3ccc(F)cc3C2)cc1Cl`, the GI50 was 1.86 µM with NCI-H23 lung; 0.0605 µM with OVCAR-3 ovarian; 0.0405 µM in the assay on UACC-62 melanoma; 1.7 µM in the assay with HCC-2998 colon; 0.29 µM in the assay with HOP-62 NSCLC; 8.69 µM with MDA-MB-435. In addition, the GI50 with BT-549 breast is 15.2 µM; with HT29 colon, 0.229 µM; in the assay with IGROV1 ovarian, 0.0202 µM; in the assay with HCT-15 colon it was 2.82 µM. The TGI worked out at 21 µM in the assay on NCI-H23 lung; 0.325 µM in the assay with OVCAR-3 ovarian; 0.248 µM with UACC-62 melanoma; 14.4 µM in the assay with HCC-2998 colon; 15.5 µM with HOP-62 NSCLC; 22 µM with MDA-MB-435. Moreover, the TGI in the assay with BT-549 breast turned out to be 29.3 µM; in the assay with HT29 colon, 6.61 µM; with IGROV1 ovarian, 0.124 µM; in the assay on HCT-15 colon, 18.8 µM.
For `O=C1NC(=NCc2cccs2)O/C1=C\c1ccc2ncccc2c1`, the GI50 in the assay on NCI-H23 lung was 7.9 µM; in the assay with OVCAR-3 ovarian, 4.46 µM; with UACC-62 melanoma it was 4.42 µM; in the assay with HCC-2998 colon, 7.76 µM; in the assay with HOP-62 NSCLC, 6.1 µM; with MDA-MB-435, 4.51 µM. Besides, the GI50 is 3.15 µM in the assay on BT-549 breast, 6.12 µM in the assay on HT29 colon, 3.51 µM in the assay on IGROV1 ovarian and 6.38 µM in the assay with HCT-15 colon. Besides, the TGI with NCI-H23 lung was > 25 µM; in the assay with OVCAR-3 ovarian, 12.6 µM; with UACC-62 melanoma it was 11.5 µM; in the assay on HCC-2998 colon, > 25 µM; in the assay with HOP-62 NSCLC, 18.9 µM; with MDA-MB-435, 14.4 µM. For the same molecule, the TGI is 13.3 µM with BT-549 breast, 21.2 µM in the assay on HT29 colon, 10.5 µM in the assay on IGROV1 ovarian and > 25 µM in the assay on HCT-15 colon.
On to `COc1ccccc1CNCCCN1C(=O)c2ccc3c4c(ccc(c24)C1=O)C(=O)N(CCCNCc1ccccc1OC)C3=O`, for which the GI50 in the assay on NCI-H23 lung is 0.179 µM; in the assay with OVCAR-3 ovarian, 0.085 µM; with UACC-62 melanoma it was 0.198 µM; with HCC-2998 colon, 0.166 µM; with HOP-62 NSCLC, 0.192 µM; in the assay with MDA-MB-435 it was 0.179 µM. Further, the GI50 was 0.348 µM in the assay on BT-549 breast, 0.136 µM with HT29 colon, 0.148 µM with IGROV1 ovarian and 0.191 µM in the assay with HCT-15 colon. For the same molecule, the TGI was found to be 0.443 µM with NCI-H23 lung; 0.218 µM in the assay with OVCAR-3 ovarian; 0.407 µM with UACC-62 melanoma; 0.328 µM in the assay on HCC-2998 colon; 0.633 µM in the assay on HOP-62 NSCLC; 0.349 µM in the assay on MDA-MB-435. Also, the TGI with BT-549 breast is 0.895 µM; in the assay with HT29 colon it was 0.425 µM; in the assay on IGROV1 ovarian it was 0.399 µM; with HCT-15 colon, 0.465 µM.
Consider `O=C1NC(=O)C2C3C=CC(C12)C1C2C(=O)NC(=O)C2C31` (centres undefined), for which the GI50 in the assay on NCI-H23 lung is 727 µM; with OVCAR-3 ovarian, > 909 µM; with UACC-62 melanoma, 636 µM; with HCC-2998 colon it was > 587 µM; in the assay on HOP-62 NSCLC it was > 644 µM; with MDA-MB-435, > 250 µM. Moreover, the GI50 in the assay with BT-549 breast is 313 µM; in the assay on HT29 colon, 657 µM; in the assay with IGROV1 ovarian it was > 770 µM; with HCT-15 colon it was > 43.6 µM and 646 µM. Further, the TGI in the assay with NCI-H23 lung is 250 µM and > 1000 µM; with OVCAR-3 ovarian it was 250 µM and > 1000 µM; in the assay with UACC-62 melanoma, 227 µM and > 1000 µM; in the assay on HCC-2998 colon it was 250 µM and > 1000 µM; in the assay on MDA-MB-435, > 1000 µM; in the assay with BT-549 breast it was > 1000 µM. In addition, the TGI in the assay on HT29 colon was 194 µM and > 1000 µM; in the assay with IGROV1 ovarian it was 248 µM and > 1000 µM; in the assay with HCT-15 colon it was > 61 µM and 250 µM and > 1000 µM.
For `O=c1c(Oc2ccc(F)cc2F)cc2cnc(NC3CCOCC3)nc2n1C1CC1`, the GI50 with NCI-H23 lung, with OVCAR-3 ovarian, in the assay with UACC-62 melanoma, in the assay on HCC-2998 colon, in the assay with HOP-62 NSCLC and in the assay with MDA-MB-435 was > 25 µM throughout. Besides, the GI50 in the assay on BT-549 breast, with HT29 colon, with IGROV1 ovarian and in the assay with HCT-15 colon was > 25 µM each time. In addition, the TGI in the assay on NCI-H23 lung, in the assay on OVCAR-3 ovarian, in the assay on UACC-62 melanoma, in the assay with HCC-2998 colon, in the assay with HOP-62 NSCLC and with MDA-MB-435 was > 25 µM in each case. The TGI in the assay with BT-549 breast, in the assay on HT29 colon, in the assay with IGROV1 ovarian and in the assay on HCT-15 colon was > 25 µM in each case.
For the molecule `C=C(C)c1nc(Oc2ccccc2)nc(Oc2ccccc2)n1`, the TGI in the assay on NCI-H23 lung came out at 21.5 µM; with OVCAR-3 ovarian, 15.2 µM; with UACC-62 melanoma, 18.1 µM; in the assay on HCC-2998 colon, 8.18 µM; in the assay on HOP-62 NSCLC, 25 µM; in the assay with MDA-MB-435 it was 22.3 µM. In addition, the TGI came out at 13.1 µM with BT-549 breast, 12.9 µM in the assay with HT29 colon, 22.4 µM with IGROV1 ovarian and 7.43 µM in the assay with HCT-15 colon.
As for `COc1ccc(Cn2c(Br)c3c(c2-c2cc(OC)c(OC)c(OC)c2)CCc2sc(N)nc2-3)cc1`, the GI50 was 2.69 µM in the assay with NCI-H23 lung; 0.861 µM with OVCAR-3 ovarian; 0.598 µM in the assay on UACC-62 melanoma; 2.93 µM with HCC-2998 colon; 1.33 µM in the assay on HOP-62 NSCLC; 0.224 µM with MDA-MB-435. Further, the GI50 is 2.39 µM with BT-549 breast, 0.731 µM in the assay with HT29 colon, 1.28 µM with IGROV1 ovarian and 1.05 µM in the assay with HCT-15 colon. The TGI in the assay on NCI-H23 lung is > 58.3 µM; in the assay with OVCAR-3 ovarian, 9.61 µM; in the assay with UACC-62 melanoma, 15 µM; in the assay with HCC-2998 colon, 12.3 µM; in the assay with HOP-62 NSCLC, > 47 µM; in the assay with MDA-MB-435, 0.537 µM. The TGI is 9.09 µM in the assay on BT-549 breast, 5.48 µM in the assay with HT29 colon, 9.19 µM with IGROV1 ovarian and > 48.7 µM in the assay with HCT-15 colon.
